Measured values from patent US20240327393A1 (SIRONAX LTD., priority 2021, published 2024).

Test system: HT-1080 (ATCC, CCL-121) cells
Assay: HT-1080 cell viability assay with ferroptosis inducer RSL3 (Cell Titer-Glo)
Format: cell-based
Conditions: Homo sapiens; HT-1080 cells treated with RSL3; 3-fold, 10-point dilution, 1.1 μM highest concentration; Table 2; read-out: EC50 (nM), ferroptosis inhibitory activity
Experimental: Example 2. Determination of EC50 Values in HT-1080 Cell Viability Assay
HT-1080 (ATCC, CCL-121) cells (6000 in 100 μl) were seeded in 96-well plates (Corning) and cultured in a 37° C. incubator with a humidified atmosphere of 5% CO2 for overnight. Cells were then treated with ferroptosis inducer RSL3 (TargetMol) and a 3-fold, 10-point serial dilution series of compounds with 1.1 μM as the highest concentration, […]. Cell viability was assessed using the Cell Titer-Glo Kit (Promega). The luminescence intensity was measured with a microplate reader (Envision, PerkinElmer), and cell viability was calculated by normalizing the data to untreated controls. The EC50 values of the compounds (e.g., Compounds 1-659) were calculated in GraphPad Prism (GraphPad Software, Inc., San Diego, CA, USA). The curves were fitted using a non-linear regression model with a sigmoidal dose response.

| Compound | EC50 |
| --- | --- |
| COc1cc(Nc2ccc3c(c2)OCC(=O)N3C)ccc1N1CC(C)OC(C)C1 (stereo not drawn) [Compound 70, 7-((4-(2,6-dimethylmorpholino)-3-methoxyphenyl)amino)-4-methyl-2H-benzo[b][1,4]oxazin-3(4H)-one] | 0.1 to 100 nM |
| CC1CN(c2ccc3cc(Nc4ccc5c(c4)OCC(=O)N5C)ccc3c2)CC(C)O1 (stereo not drawn) [Compound 71, 7-((6-(2,6-dimethylmorpholino)naphthalen-2-yl)amino)-4-methyl-2H-benzo[b][1,4]oxazin-3(4H)-one] | 0.1 to 100 nM |
| CN1C(=O)COc2cc(Nc3ccc4cc(N5CCC(C(F)(F)F)CC5)ccc4c3)ccc21 [Compound 72, 4-methyl-7-((6-(4-(trifluoromethyl)piperidin-1-yl)naphthalen-2-yl)amino)-2H-benzo[b][1,4]oxazin-3(4H)-one] | 0.1 to 100 nM |
| CC1CN(c2ccc(Nc3ccc4c(c3)OCC(=O)N4C)cc2F)CC(C)O1 (stereo not drawn) [Compound 73, 7-((4-(2,6-dimethylmorpholino)-3-fluorophenyl)amino)-4-methyl-2H-benzo[b][1,4]oxazin-3(4H)-one] | 0.1 to 100 nM |
| CC1CN(c2ccc(Nc3ccc4c(c3)OCC(=O)N4C)c(F)c2)CC(C)O1 (stereo not drawn) [Compound 74, 7-((4-(2,6-dimethylmorpholino)-2-fluorophenyl)amino)-4-methyl-2H-benzo[b][1,4]oxazin-3(4H)-one] | 0.1 to 100 nM |
| CN1C(=O)COc2cc(Nc3ccc(N4CCC(C(F)(F)F)CC4)cc3)cnc21 [Compound 75, 4-methyl-7-((4-(4-(trifluoromethyl)piperidin-1-yl)phenyl)amino)-2H-pyrido[3,2-b][1,4]oxazin-3(4H)-one] | 0.1 to 100 nM |
| CC1CN(c2ccc(Nc3cnc4c(c3)OCC(=O)N4C)cc2)CC(C)O1 (stereo not drawn) [Compound 76, 7-((4-(2,6-dimethylmorpholino)phenyl)amino)-4-methyl-2H-pyrido[3,2-b][1,4]oxazin-3(4H)-one] | 0.1 to 100 nM |
| CN1C(=O)COc2cc(Nc3ccc(N4CCC(C(F)(F)F)CC4)c(F)c3)ccc21 [Compound 77, 7-((3-fluoro-4-(4-(trifluoromethyl)piperidin-1-yl)phenyl)amino)-4-methyl-2H-benzo[b][1,4]oxazin-3(4H)-one] | 0.1 to 100 nM |
| Cc1cc(N2CCC(C(F)(F)F)CC2)ccc1Nc1ccc2c(c1)OCC(=O)N2C [Compound 78, 4-methyl-7-((2-methyl-4-(4-(trifluoromethyl)piperidin-1-yl)phenyl)amino)-2H-benzo[b][1,4]oxazin-3(4H)-one] | 0.1 to 100 nM |
| Cc1cc(N2CCC(C(F)(F)F)CC2)cc(C)c1Nc1ccc2c(c1)OCC(=O)N2C [Compound 79, 7-((2,6-dimethyl-4-(4-(trifluoromethyl)piperidin-1-yl)phenyl)amino)-4-methyl-2H-benzo[b][1,4]oxazin-3(4H)-one] | 0.1 to 100 nM |
| CC1CN(c2ccc(Nc3ccc4c(c3)OCC(=O)N4CCN(C)C)cc2)CC(C)O1 (stereo not drawn) [Compound 80, 4-(2-(dimethylamino)ethyl)-7-((4-(2,6-dimethylmorpholino)phenyl)amino)-2H-benzo[b][1,4]oxazin-3(4H)-one] | 0.1 to 100 nM |
| CCC1Oc2cc(Nc3ccc(N4CC(C)OC(C)C4)cc3)ccc2N(C)C1=O (stereo not drawn) [Compound 81, 7-((4-(2,6-dimethylmorpholino)phenyl)amino)-2-ethyl-4-methyl-2H-benzo[b][1,4]oxazin-3(4H)-one] | 0.1 to 100 nM |
| CC(C)(C)c1ccc(Nc2ccc3c(c2)OCC(=O)N3CCO)cc1 [Compound 82, 7-((4-(tert-butyl)phenyl)amino)-4-(2-hydroxyethyl)-2H-benzo[b][1,4]oxazin-3(4H)-one] | 0.1 to 100 nM |
| O=C1COc2cc(Nc3ccc(N4CCC(C(F)(F)F)CC4)cc3)ccc2N1CCO [Compound 83] | 0.1 to 100 nM |
| CC1CN(c2ccc(Nc3ccc4c(c3)OCC(=O)N4CCO)cc2)CC(C)O1 (stereo not drawn) [Compound 84, 7-((4-(2,6-dimethylmorpholino)phenyl)amino)-4-(2-hydroxyethyl)-2H-benzo[b][1,4]oxazin-3(4H)-one] | 0.1 to 100 nM |
| O=C1COc2cc(Nc3ccc(N4CCC(C(F)(F)F)CC4)cc3)ccc2N1 [Compound 85, 7-((4-(4-(trifluoromethyl)piperidin-1-yl)phenyl)amino)-2H-benzo[b][1,4]oxazin-3(4H)-one] | 0.1 to 100 nM |
| Cc1cc(Nc2ccc3c(c2)OCC(=O)N3C)ccc1N1CCC(C(F)(F)F)CC1 [Compound 86, 4-methyl-7-((3-methyl-4-(4-(trifluoromethyl)piperidin-1-yl)phenyl)amino)-2H-benzo[b][1,4]oxazin-3(4H)-one] | 0.1 to 100 nM |

The remaining lines, values ahead:

| EC50 | Compound |
| --- | --- |
| 0.1 to 100 nM | Cc1cc(N2CC(C)OC(C)C2)ccc1Nc1ccc2c(c1)OCC(=O)N2C (stereo not drawn) [Compound 51, 7-((4-(2,6-dimethylmorpholino)-2-methylphenyl)amino)-4-methyl-2H-benzo[b][1,4]oxazin-3(4H)-one] |
| 0.1 to 100 nM | Cc1cc(Nc2ccc3c(c2)OCC(=O)N3C)ccc1N1CC(C)OC(C)C1 (stereo not drawn) [Compound 52, 7-((4-(2,6-dimethylmorpholino)-3-methylphenyl)amino)-4-methyl-2H-benzo[b][1,4]oxazin-3(4H)-one] |
| 0.1 to 100 nM | CNCCN1C(=O)COc2cc(Nc3ccc(N4CC(C)OC(C)C4)cc3)ccc21 (stereo not drawn) [Compound 53, 7-((4-(2,6-dimethylmorpholino)phenyl)amino)-4-(2-(methylamino)ethyl)-2H-benzo[b][1,4]oxazin-3(4H)-one] |
| 0.1 to 100 nM | CNCCN1C(=O)COc2cc(Nc3ccc(C4CC(C)OC(C)C4)cc3)ccc21 (stereo not drawn) [Compound 54, 7-((4-(2,6-dimethyltetrahydro-2H-pyran-4-yl)phenyl)amino)-4-(2-(methylamino)ethyl)-2H-benzo[b][1,4]oxazin-3(4H)-one] |
| 0.1 to 100 nM | CNCCN1C(=O)COc2cc(Nc3ccc(N4CC(C)OC(C)C4)cc3C)ccc21 (stereo not drawn) [Compound 55, 7-((4-(2,6-dimethylmorpholino)-2-methylphenyl)amino)-4-(2-(methylamino)ethyl)-2H-benzo[b][1,4]oxazin-3(4H)-one] |
| 0.1 to 100 nM | CNCCCN1C(=O)COc2cc(Nc3ccc(N4CC(C)OC(C)C4)c(C)c3)ccc21 (stereo not drawn) [Compound 56, 7-((4-(2,6-dimethylmorpholino)-3-methylphenyl)amino)-4-(3-(methylamino)propyl)-2H-benzo[b][1,4]oxazin-3(4H)-one] |
| 0.1 to 100 nM | CN1C(=O)COc2cc(Nc3cc(F)c(N4CCC(C(F)(F)F)CC4)c(F)c3)ccc21 [Compound 57, 7-((3,5-difluoro-4-(4-(trifluoromethyl)piperidin-1-yl)phenyl)amino)-4-methyl-2H-benzo[b][1,4]oxazin-3(4H)-one] |
| 0.1 to 100 nM | CN1C(=O)COc2cc(Nc3cnc(N4CCC(C(F)(F)F)CC4)nc3)ccc21 [Compound 58, 4-methyl-7-((2-(4-(trifluoromethyl)piperidin-1-yl)pyrimidin-5-yl)amino)-2H-benzo[b][1,4]oxazin-3(4H)-one] |
| 0.1 to 100 nM | Cc1cc(N2CCC(C(F)(F)F)CC2)c(F)cc1Nc1ccc2c(c1)OCC(=O)N2C [Compound 59, 7-((5-fluoro-2-methyl-4-(4-(trifluoromethyl)piperidin-1-yl)phenyl)amino)-4-methyl-2H-benzo[b][1,4]oxazin-3(4H)-one] |
| 0.1 to 100 nM | CC1CN(c2ccc(Nc3ccc4c(c3)OCCN4C)cc2)CC(C)O1 (stereo not drawn) [Compound 60, N-(4-(2,6-dimethylmorpholino)phenyl)-4-methyl-3,4-dihydro-2H-benzo[b][1,4]oxazin-7-amine] |
| 0.1 to 100 nM | Cc1cc(N2CC(C)OC(C)C2)c(F)cc1Nc1ccc2c(c1)OCC(=O)N2C (stereo not drawn) [Compound 61, 7-((4-(2,6-dimethylmorpholino)-5-fluoro-2-methylphenyl)amino)-4-methyl-2H-benzo[b][1,4]oxazin-3(4H)-one] |
| 0.1 to 100 nM | CNCCN1C(=O)COc2cc(Nc3ccc(N4CC(C)OC(C)C4)c(C)c3)ccc21 (stereo not drawn) [Compound 62, 7-((4-(2,6-dimethylmorpholino)-3-methylphenyl)amino)-4-(2-(methylamino)ethyl)-2H-benzo[b][1,4]oxazin-3(4H)-one] |
| 0.1 to 100 nM | Cc1c(Nc2ccc3c(c2)OCC(=O)N3C)ccc(N2CCC(C(F)(F)F)CC2)c1F [Compound 63, 7-((3-fluoro-2-methyl-4-(4-(trifluoromethyl)piperidin-1-yl)phenyl)amino)-4-methyl-2H-benzo[b][1,4]oxazin-3(4H)-one] |
| 0.1 to 100 nM | CC1CC(c2ccc(Nc3ccc4c(c3)OCC(=O)N4C)cc2)CC(C)O1 (stereo not drawn) [Compound 64, 7-((4-(2,6-dimethyltetrahydro-2H-pyran-4-yl)phenyl)amino)-4-methyl-2H-benzo[b][1,4]oxazin-3(4H)-one] |
| 0.1 to 100 nM | CC1CN(c2ccc3cc(Nc4ccc5c(c4)OCC(=O)N5C)ccc3n2)CC(C)O1 (stereo not drawn) [Compound 65, 7-((2-(2,6-dimethylmorpholino)quinolin-6-yl)amino)-4-methyl-2H-benzo[b][1,4]oxazin-3(4H)-one] |
| 0.1 to 100 nM | CC1CN(c2ncc(Nc3ccc4c(c3)OCC(=O)N4C)cn2)CC(C)O1 (stereo not drawn) [Compound 66, 7-((2-(2,6-dimethylmorpholino)pyrimidin-5-yl)amino)-4-methyl-2H-benzo[b][1,4]oxazin-3(4H)-one] |
| 0.1 to 100 nM | CC1CN(c2c(F)cc(Nc3ccc4c(c3)OCC(=O)N4C)cc2F)CC(C)O1 (stereo not drawn) [Compound 67] |
| 0.1 to 100 nM | CCC1Oc2cc(Nc3ccc(N4CCC(C(F)(F)F)CC4)cc3)ccc2N(C)C1=O (stereo not drawn) [Compound 68, 2-ethyl-4-methyl-7-((4-(4-(trifluoromethyl)piperidin-1-yl)phenyl)amino)-2H-benzo[b][1,4]oxazin-3(4H)-one] |
| 0.1 to 100 nM | Cc1nc(N2CC(C)OC(C)C2)ccc1Nc1ccc2c(c1)OCC(=O)N2C (stereo not drawn) [Compound 69, 7-((6-(2,6-dimethylmorpholino)-2-methylpyridin-3-yl)amino)-4-methyl-2H-benzo[b][1,4]oxazin-3(4H)-one] |
